From ChEMBL document CHEMBL5465560, “Selectivity Literature for EUbOPEN Chemogenomic Library” (2024)

Columns and labels:
[1] = target: Tyrosine-protein kinase ABL1 (Homo sapiens, UniProt P00519); assay: Selectivity interaction (KinomeScan (DiscoverX)) EUB0000666a ABL1; settings: at 10 µM
[2] = target: Serine/threonine-protein kinase PAK 6 (Homo sapiens) (UniProt Q9NQU5); assay: Selectivity interaction (KinomeScan (DiscoverX)) EUB0000229b PAK6; settings: at 10 µM
[3] = target: T1, Ephrin type-A receptor 8 (Homo sapiens) (UniProt P29322); assay: Selectivity interaction (KinomeScan (DiscoverX)) EUB0001079a EPHA8; settings: at 1 µM
T1 sequence (whole entry): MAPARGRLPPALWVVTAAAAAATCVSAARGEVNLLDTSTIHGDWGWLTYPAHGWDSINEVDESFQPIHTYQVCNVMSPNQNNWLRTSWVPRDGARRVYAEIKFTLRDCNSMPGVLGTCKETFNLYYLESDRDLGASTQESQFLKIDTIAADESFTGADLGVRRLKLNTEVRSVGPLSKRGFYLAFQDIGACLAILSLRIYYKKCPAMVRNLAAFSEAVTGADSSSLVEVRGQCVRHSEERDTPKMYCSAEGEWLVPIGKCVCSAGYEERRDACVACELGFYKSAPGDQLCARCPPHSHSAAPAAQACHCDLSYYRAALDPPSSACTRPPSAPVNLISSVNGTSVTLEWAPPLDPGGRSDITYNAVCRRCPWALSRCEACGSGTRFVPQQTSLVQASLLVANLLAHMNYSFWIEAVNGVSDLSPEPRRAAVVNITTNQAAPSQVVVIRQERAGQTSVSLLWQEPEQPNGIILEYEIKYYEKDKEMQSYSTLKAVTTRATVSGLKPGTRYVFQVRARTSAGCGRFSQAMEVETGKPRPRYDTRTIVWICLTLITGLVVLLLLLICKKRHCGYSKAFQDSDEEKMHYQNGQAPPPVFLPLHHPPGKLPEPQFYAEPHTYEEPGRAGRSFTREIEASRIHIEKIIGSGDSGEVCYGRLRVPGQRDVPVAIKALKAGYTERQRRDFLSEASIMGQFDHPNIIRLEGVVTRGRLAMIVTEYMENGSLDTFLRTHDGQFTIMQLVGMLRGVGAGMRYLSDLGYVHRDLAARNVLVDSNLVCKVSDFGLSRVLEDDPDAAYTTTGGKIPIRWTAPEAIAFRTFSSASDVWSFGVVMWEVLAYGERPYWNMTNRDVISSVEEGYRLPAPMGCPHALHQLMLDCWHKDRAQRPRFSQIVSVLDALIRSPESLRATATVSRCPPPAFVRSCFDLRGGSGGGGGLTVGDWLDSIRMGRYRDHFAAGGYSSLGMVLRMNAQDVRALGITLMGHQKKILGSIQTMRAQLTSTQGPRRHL

[4] = target: Calcium/calmodulin-dependent protein kinase type 1G (Homo sapiens) (UniProt Q96NX5); settings: at 10 µM
Chain of Calcium/calmodulin-dependent protein kinase type 1G (Homo sapiens) (Q96NX5 whole entry): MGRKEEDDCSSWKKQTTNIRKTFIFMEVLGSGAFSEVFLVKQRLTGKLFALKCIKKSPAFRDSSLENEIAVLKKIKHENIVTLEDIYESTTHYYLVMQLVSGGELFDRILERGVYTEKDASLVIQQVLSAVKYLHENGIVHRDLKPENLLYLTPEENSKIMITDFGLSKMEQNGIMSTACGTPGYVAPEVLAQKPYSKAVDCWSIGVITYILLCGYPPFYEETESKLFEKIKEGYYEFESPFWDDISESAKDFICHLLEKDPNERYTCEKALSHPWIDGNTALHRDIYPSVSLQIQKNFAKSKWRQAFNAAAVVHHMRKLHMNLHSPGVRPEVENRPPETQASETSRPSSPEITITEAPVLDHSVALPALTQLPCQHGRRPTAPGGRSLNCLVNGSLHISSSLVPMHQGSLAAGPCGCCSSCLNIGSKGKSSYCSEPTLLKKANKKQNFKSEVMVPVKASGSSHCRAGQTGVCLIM

[5] = target: Serine/threonine-protein kinase WNK2 (Homo sapiens) (UniProt Q9Y3S1); assay: Selectivity interaction (ActivX KiNativ screen (kinase selectivity in THP-1 cell lysates)) EUB0000639a WNK2; type: subcellular; settings: lysate, at 5 µM
Chain of Serine/threonine-protein kinase WNK2 (Homo sapiens) (Q9Y3S1 whole entry, canonical isoform): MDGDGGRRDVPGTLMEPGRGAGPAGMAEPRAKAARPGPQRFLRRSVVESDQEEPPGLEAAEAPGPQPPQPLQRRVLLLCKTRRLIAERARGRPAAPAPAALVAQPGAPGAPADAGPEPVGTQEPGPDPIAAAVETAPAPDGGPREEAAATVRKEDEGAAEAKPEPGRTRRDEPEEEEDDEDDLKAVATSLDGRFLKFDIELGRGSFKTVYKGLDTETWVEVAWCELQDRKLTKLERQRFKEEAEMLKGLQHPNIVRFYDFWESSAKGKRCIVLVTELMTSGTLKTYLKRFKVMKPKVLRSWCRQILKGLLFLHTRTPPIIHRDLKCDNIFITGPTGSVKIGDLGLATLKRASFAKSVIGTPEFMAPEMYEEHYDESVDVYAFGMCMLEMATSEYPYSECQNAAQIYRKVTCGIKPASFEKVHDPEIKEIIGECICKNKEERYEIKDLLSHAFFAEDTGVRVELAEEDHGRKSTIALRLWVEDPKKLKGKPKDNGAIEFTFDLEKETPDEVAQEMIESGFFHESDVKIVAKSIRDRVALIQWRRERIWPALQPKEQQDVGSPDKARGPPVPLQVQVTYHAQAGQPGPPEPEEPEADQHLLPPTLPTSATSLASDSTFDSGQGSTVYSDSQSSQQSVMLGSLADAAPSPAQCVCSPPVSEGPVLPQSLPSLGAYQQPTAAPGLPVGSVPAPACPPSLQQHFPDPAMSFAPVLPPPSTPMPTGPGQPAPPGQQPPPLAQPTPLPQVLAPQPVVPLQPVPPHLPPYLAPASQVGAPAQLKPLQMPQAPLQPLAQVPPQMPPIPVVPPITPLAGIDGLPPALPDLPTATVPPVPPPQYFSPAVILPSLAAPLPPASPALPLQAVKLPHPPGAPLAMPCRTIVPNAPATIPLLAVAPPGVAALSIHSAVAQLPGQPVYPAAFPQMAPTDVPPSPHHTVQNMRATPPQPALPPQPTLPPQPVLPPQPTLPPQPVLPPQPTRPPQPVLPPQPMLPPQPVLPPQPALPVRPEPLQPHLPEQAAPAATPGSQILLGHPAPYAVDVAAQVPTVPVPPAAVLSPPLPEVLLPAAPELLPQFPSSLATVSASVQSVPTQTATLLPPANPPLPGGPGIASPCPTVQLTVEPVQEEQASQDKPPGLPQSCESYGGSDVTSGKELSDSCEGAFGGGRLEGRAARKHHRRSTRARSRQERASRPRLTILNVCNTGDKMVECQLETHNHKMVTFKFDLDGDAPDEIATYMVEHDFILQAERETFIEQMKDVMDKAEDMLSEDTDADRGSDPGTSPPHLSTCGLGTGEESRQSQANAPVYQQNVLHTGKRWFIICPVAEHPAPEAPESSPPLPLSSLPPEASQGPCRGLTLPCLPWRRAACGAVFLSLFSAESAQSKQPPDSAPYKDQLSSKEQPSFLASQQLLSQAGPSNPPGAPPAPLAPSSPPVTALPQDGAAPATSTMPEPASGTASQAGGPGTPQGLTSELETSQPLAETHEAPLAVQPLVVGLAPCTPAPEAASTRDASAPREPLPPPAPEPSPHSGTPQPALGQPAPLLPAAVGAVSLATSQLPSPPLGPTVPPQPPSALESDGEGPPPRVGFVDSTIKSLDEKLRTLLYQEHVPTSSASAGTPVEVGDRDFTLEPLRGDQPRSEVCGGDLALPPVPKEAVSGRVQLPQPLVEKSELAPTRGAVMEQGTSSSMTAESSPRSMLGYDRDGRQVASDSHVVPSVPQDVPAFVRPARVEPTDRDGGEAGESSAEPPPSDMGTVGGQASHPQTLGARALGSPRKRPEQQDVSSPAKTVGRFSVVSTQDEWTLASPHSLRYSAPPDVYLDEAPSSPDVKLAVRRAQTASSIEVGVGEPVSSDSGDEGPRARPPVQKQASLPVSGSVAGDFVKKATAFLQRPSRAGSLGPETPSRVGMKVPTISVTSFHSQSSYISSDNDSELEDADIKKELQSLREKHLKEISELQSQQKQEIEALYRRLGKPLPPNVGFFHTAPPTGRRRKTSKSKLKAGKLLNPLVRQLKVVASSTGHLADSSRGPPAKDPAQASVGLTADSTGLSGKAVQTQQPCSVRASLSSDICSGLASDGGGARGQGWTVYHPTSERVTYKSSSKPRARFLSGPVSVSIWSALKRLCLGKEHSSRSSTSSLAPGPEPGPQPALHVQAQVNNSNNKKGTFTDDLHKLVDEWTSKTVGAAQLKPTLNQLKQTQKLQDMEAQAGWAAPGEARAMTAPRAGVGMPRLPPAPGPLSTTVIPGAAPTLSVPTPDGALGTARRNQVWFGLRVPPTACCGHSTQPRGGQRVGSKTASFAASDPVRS

[6] = target: Casein kinase I isoform epsilon (Homo sapiens, UniProt P49674); assay: Selectivity interaction (KinomeScan (DiscoverX)) EUB0000092b CSNK1E; settings: at 10 µM
Chain of Casein kinase I isoform epsilon (P49674 whole entry, looked up, canonical isoform): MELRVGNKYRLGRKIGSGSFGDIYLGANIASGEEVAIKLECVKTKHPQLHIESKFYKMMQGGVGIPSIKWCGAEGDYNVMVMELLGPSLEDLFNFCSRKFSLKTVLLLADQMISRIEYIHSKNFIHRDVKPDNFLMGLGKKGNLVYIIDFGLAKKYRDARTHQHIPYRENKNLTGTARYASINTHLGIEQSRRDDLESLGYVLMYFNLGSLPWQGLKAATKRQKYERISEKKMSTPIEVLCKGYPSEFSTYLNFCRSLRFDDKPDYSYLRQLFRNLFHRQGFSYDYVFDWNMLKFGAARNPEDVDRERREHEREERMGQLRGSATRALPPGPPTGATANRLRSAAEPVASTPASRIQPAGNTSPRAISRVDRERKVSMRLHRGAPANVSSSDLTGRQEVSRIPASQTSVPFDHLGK

[7] = test system: Tyrosine-protein kinase ABL1 (Homo sapiens), P00519 [T315I]; settings: at 10 µM
[8] = target: T2, Dual specificity tyrosine-phosphorylation-regulated kinase 2 (Homo sapiens) (UniProt Q92630); assay: Selectivity interaction (Upstate Kinase Profiler service (Millipore)) EUB0000056c DYRK2; settings: at 1 µM
T2 sequence (whole entry): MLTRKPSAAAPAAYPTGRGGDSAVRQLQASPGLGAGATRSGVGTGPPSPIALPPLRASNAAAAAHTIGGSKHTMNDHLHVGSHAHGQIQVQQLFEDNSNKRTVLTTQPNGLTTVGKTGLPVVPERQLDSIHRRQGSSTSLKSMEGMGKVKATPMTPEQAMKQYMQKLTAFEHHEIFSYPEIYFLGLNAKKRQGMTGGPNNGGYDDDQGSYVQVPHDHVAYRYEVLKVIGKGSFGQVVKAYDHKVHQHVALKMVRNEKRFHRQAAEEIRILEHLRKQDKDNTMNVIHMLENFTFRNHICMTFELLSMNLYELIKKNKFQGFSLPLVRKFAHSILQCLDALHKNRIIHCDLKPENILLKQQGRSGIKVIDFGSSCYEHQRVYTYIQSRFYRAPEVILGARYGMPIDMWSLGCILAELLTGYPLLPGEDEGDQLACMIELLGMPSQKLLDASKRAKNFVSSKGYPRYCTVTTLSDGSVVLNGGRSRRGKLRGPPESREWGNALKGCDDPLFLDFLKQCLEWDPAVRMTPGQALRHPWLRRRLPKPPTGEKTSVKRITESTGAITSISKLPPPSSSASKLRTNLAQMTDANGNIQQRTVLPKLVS

[9] = target: T3, Protein kinase C iota type (Homo sapiens) (UniProt P41743); assay: Selectivity interaction (KinomeScan (DiscoverX)) EUB0000695a PRKCI; settings: at 100 nM
T3 sequence (whole entry): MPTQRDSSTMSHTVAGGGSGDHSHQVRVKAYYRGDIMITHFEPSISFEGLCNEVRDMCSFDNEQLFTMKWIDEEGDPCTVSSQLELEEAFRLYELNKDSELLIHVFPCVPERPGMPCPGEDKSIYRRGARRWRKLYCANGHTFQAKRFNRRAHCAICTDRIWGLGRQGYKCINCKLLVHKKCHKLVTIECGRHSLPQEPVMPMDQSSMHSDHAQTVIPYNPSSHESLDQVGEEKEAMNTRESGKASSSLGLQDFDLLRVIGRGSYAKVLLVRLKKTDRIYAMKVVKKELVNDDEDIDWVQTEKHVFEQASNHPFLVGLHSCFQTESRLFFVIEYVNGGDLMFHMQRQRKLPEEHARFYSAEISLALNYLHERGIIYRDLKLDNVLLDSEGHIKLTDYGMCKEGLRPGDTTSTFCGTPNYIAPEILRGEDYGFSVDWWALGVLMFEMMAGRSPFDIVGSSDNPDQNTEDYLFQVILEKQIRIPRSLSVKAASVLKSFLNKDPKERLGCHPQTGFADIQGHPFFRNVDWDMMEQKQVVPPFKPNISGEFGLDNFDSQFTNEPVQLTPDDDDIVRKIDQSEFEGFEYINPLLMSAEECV

[10] = target: Tyrosine-protein kinase Blk (Homo sapiens) (UniProt P51451); assay: Selectivity interaction (Kinase panel (Z-LYTE Assay)) EUB0001632a BLK; settings: at 10 µM
Chain of Tyrosine-protein kinase Blk (Homo sapiens) (P51451 2-505 limits assumed): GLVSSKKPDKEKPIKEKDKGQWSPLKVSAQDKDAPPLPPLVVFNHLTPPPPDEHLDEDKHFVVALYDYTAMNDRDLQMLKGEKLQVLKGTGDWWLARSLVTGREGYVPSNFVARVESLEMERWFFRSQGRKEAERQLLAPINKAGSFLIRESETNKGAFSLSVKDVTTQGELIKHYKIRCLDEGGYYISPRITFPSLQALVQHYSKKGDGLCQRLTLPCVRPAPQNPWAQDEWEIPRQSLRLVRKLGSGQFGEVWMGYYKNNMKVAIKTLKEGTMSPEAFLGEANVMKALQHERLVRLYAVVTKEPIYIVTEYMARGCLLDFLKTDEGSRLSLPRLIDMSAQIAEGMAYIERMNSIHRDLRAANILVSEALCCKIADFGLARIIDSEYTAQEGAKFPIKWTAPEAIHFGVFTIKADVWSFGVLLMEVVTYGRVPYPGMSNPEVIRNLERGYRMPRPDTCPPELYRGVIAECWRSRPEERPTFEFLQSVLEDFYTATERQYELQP

Chain of Serine/threonine-protein kinase PAK 6 (Homo sapiens) (Q9NQU5 whole entry, looked up): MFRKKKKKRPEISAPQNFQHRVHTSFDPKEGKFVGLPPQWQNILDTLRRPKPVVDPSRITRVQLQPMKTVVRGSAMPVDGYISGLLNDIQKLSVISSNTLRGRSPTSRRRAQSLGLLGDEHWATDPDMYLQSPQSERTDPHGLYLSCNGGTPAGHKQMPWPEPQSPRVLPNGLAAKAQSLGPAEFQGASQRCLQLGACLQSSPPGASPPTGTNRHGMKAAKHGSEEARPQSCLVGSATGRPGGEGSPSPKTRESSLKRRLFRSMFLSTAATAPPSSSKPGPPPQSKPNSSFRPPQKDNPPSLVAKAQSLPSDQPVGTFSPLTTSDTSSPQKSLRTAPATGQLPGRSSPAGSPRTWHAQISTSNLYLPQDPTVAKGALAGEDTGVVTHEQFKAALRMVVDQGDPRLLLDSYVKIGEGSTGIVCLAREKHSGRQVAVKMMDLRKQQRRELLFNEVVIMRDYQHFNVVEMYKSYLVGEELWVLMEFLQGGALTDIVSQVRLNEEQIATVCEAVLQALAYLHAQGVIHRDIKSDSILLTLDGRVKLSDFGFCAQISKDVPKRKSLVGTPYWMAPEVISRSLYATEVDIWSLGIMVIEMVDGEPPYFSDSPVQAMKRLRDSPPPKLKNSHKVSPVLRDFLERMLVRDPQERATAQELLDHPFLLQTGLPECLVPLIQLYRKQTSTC

## O=C(NOC[C@H](O)CO)c1ccc(F)c(F)c1Nc1ccc(I)cc1F
[1]
  % of control: 97%

## COc1cc(N(C)c2ccnc3ccc(C(F)(F)F)cc23)cc(OC)c1OC
[2]
  % binding: 91%

## Nc1cnc(N2CCc3cc(S(=O)(=O)Nc4c(F)cc(Cl)cc4F)cc(N4CCCC4=O)c32)nc1 [TP-020n]
[3]
  % of control: 100%

## CCN(CC)CCCCNc1ncc2cc(-c3cc(OC)cc(OC)c3)c(NC(=O)NC(C)(C)C)nc2n1
[4]
  % of control: 100%

## CC[C@@H]1[C@H](F)C(=O)N[C@@H]1COc1nccc2cc(C(N)=O)c(OC)cc12 [ZIMLOVISERTIB]
[5]
  % of inhibition: -14.5%

## CCC(=O)N1CCN(c2ccc(-n3c(=O)ccc4cnc5ccc(-c6cnc7ccccc7c6)cc5c43)cc2C(F)(F)F)CC1
[6]
  % of control: 59%

## Cc1cc([C@@H](C)Nc2ccccc2C(=O)O)c2nc(N3CCOCC3)cc(=O)n2c1 [AZD-6482]
[7]
  % of control: 70%

## Cc1ccc(-c2ccc3c(ccc4sc5c(c43)NC[C@@H](C)NC5=O)n2)cn1
[8]
  % of inhibition: 27%

## Cc1cc(F)c(C(=O)Nc2cccc(-c3nncn3C(C)C)n2)cc1-n1cnc(C2CC2)c1
[9]
  % of control: 95%

## Cn1cc(-n2cnc3c(NCc4nc5cc(Cl)c(Cl)cc5[nH]4)nc(N4CCOCC4)nc32)cn1
[10]
  % of control: 6.49%
